The text below walks through data of publication PMC10974795 (2024).

The experiment concerns Apt-WO-06 (AWO-06) (DNA, aptamer) GTGAGTTTACATGGGGTCCTATAGGCGAACAATCG
Briefly: graphene oxide fluorescence recovery. Particulars: buffer composition not stated; aptamer 0.5-30 nM titrated; displaced from graphene oxide; apparent.

As to `CC1COc2c(N3CCN(C)CC3)c(F)cc3c(=O)c(C(=O)O)cn1c23` (stereo not shown), the Kd was 0.02816 µM.
